Assays:
[1] = biological target: T1, stickleback ARβ2 (reticulocyte lysate) (Gasterosteus aculeatus, UniProt Q801Z2); assay: Ligand competition assay with 1 nM [3H]-DHT, ARβ2 containing reticulocyte extract; type: binding, three-spined stickleback (Gasterosteus aculeatus); details: read-out: EC50 (competition for [3H]-DHT binding)
T1 sequence (Q801Z2 1-735): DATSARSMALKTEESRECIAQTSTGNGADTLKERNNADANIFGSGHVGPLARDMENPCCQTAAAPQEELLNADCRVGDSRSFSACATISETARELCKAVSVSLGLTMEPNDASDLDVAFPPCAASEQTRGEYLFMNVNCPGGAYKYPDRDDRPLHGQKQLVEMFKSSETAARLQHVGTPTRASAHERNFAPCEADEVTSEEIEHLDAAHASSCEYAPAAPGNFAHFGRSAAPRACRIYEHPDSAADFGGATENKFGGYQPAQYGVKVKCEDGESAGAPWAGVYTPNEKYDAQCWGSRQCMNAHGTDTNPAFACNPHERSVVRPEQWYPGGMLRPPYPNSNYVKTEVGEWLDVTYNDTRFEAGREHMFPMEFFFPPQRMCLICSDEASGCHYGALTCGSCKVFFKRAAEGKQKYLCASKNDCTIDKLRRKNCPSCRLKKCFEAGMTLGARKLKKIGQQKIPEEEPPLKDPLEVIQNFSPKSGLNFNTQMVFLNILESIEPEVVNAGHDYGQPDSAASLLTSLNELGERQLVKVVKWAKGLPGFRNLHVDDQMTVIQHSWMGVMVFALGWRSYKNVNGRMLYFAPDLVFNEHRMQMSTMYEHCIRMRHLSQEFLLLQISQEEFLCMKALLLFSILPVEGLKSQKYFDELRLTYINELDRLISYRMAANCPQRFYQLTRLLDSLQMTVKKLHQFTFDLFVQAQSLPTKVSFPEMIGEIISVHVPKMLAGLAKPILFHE
Description: The excised AR pBK CMV clones were digested with XbaI and EcoRI and the inserts were gel purified prior to ligation into the pCMV-TNT vector (Promega) between XbaI and EcoRI. […] AR was expressed by introducing the pCMV-TNT into the TNT coupled reticulocyte lysate system (Promega) according to the manufacturer's instructions. The size of the expressed products was determined by addition of S^35-methionin to the reticulocyte lysate system. The obtained protein suspension was analyzed on a denaturing 8% SDS PAGE and the sizes were determined using prestained SDS-PAGE broad range protein molecular weight standard (Bio-Rad) and a control luciferase protein of 62 kDa included in the reticulocyte lysate system (Promega). For use in binding assays AR was expressed in the absence of radioactive S^35-methionein and stored at 4°C until further used in recombinant binding assay experiments.
The steroid specificity of receptor binding was examined using a competitive binding assay. […] Following incubation, the reaction was terminated by addition of DCC and centrifugation and the specific binding in each tube was determined as described above.

stickleback ARβ2 = assay: ARE-luciferase trans-activation assay, stickleback ARβ2 in transfected HepG2 and ZFL cells; type: cell-based, three-spined stickleback (Gasterosteus aculeatus); details: for induction of luciferase activity: 40 h, versus control
Description: Two liver epithelial cell lines were used to test receptor activity. HepG2 cells (ATCC, Manassas, VA) were maintained in DMEM supplemented with 10% FCS and non-essential amino acids. ZFL cells (ATCC) were maintained in 50% L-15 Leibovitz, 15% […] and 35% DMEM supplemented with 10% FCS (Gibco, Paisley, Scotland, UK) and 50 ng ml-1 EGF (Sigma). Cells were cultured at 37°C (HepG2) or 28°C (ZFL) in 5% CO2. The transfection experiments were initiated by replacing the tissue culture medium with fresh phenol-free medium supplemented with charcoal stripped FCS and the cells were seeded on 24-well plates. Transfections were performed at 90–95% confluence using 1,5 μl Lipofectamine 2000 (Invitrogen, Carlsbad, CA, USA) and 0,6 μg DNA per well. Transfected DNA contained 60 ng pRL (Promega), 270 ng androgen response element (ARE) luciferase reporter vector, 270 ng stickleback ARβ2 expression vector or 270 ng human AR expression vector (pCMVhAR) while 270 ng empty TNT cloning vector was used to control background luciferase levels following transfections. Two different ARE containing promoter constructs were tested, one containing 3 separate ARE (HRE; slp-ARU) and a second one construct (slp-HRE2) containing 4 copies of the ARE with high affinity for R1881, a synthetic androgen, and low affinity for dexamethasone, a synthetic glucocorticoid.
After 16 h the transfection medium was replaced with fresh phenol-free medium, supplemented with charcoal stripped FCS, containing different steroid hormones. The cells were exposed to the hormones for 40 h and luciferase levels were detected using the Dual Luciferase Assay kit (Promega) in a TD 20/20 Luminometer (Turner Designs, Sunnyvale, CA). For each cell line, transfection assay was performed for each concentration with n = 4 and the luciferase value of each assay were normalized to its corresponding Renilla luciferase activity. Each experiment was repeated a minimum of 3 times. The fold-induction is presented as luciferase values normalized against the control. The control levels were arbitrarily set to 1.0 for each cell line.

rainbow trout ARα = details: COS-1 cell line; read-out: IC50 (ligand binding); cited from earlier work

C[C@]12CC(=O)[C@H]3[C@@H](CCC4=CC(=O)CC[C@@]43C)[C@@H]1CC[C@@H]2O [KT, 11-ketotestosterone]
EC50 [1]: 2.18 ± 0.71 nM
induction of luciferase activity (stickleback ARβ2; HepG2 cells): 10 fold
potency in activating the luciferase reporter gene relative to DHT (stickleback ARβ2; HepG2 or ZFL cells, slp-ARU or slp-ARE reporter): 3 fold
activation of stickleback AR compared with other androgens (stickleback ARβ2; ZFL cells, 10^-8 M of each steroid): preferentially activated
induction of luciferase activity (stickleback ARβ2; ZFL cells): 12 fold
IC50 (rainbow trout ARα): 8 nM

— publication PMC1192819, “Molecular cloning and characterization of a nuclear androgen receptor activated by 11-ketotestosterone” (Reproductive biology and endocrinology : RB&E, 2005)
